Earlier results in Sander's compilation of Henry's law constants (doi:10.1021/cr60306a003).

Experiment: Henry solubility constant Hcp at 298.15 K (mol/(m3 Pa))
Details: reference: Wilhelm et al. (1977); cited value
In the case of `C=CC=C` [1,3-butadiene], the “Henry solubility constant Hcp” value is given as 0.00014.
In the case of `C=CCC` [1-butene], the “Henry solubility constant Hcp” value is given as 0.00013.
In the case of `C#CCC` [1-butyne], the “Henry solubility constant Hcp” value is given as 0.00075.
In the case of `CC(C)C` [2-methylpropane], the “Henry solubility constant Hcp” value is listed as 8e-06.
For `C=C(C)C` [2-methylpropene], the “Henry solubility constant Hcp” value is listed as 5.6e-05.
In the case of `C#CC=C` [3-buten-1-yne], the “Henry solubility constant Hcp” value is given as 0.00037.
For `[Ar]` [argon], the “Henry solubility constant Hcp” value is given as 1.4e-05.
In the case of `CBr` [bromomethane], the “Henry solubility constant Hcp” value is listed as 0.0016.
In the case of `CCCC` [butane], the “Henry solubility constant Hcp” value is given as 1.2e-05.
For `O=C=O` [carbon dioxide], the “Henry solubility constant Hcp” value is given as 0.00033.
For `[C-]#[O+]` [carbon monoxide], the “Henry solubility constant Hcp” value is listed as 9.4e-06.
In the case of `O=C=S` [carbon oxide sulfide], the “Henry solubility constant Hcp” value is given as 0.00021.
For `[O][Cl+][O-]` [chlorine dioxide], the “Henry solubility constant Hcp” value is listed as 0.01.
For `FC(F)Cl` [chlorodifluoromethane], the “Henry solubility constant Hcp” value is listed as 0.00034.
For `C=CCl` [chloroethene], the “Henry solubility constant Hcp” value is listed as 0.00045.
For `FCCl` [chlorofluoromethane], the “Henry solubility constant Hcp” value is given as 0.0015.
In the case of `FC(F)(F)C(F)(F)Cl` [chloropentafluoroethane], the “Henry solubility constant Hcp” value is listed as 3.4e-06.
For `FC(F)(F)Cl` [chlorotrifluoromethane], the “Henry solubility constant Hcp” value is listed as 9.3e-06.
For `C1CC1` [cyclopropane], the “Henry solubility constant Hcp” value is listed as 0.00011.
For `FC(F)(Cl)Cl` [dichlorodifluoromethane], the “Henry solubility constant Hcp” value is listed as 2.1e-05.
In the case of `CNC` [dimethylamine], the “Henry solubility constant Hcp” value is given as 0.3.
For `CC(C)(C)C` [dimethylpropane], the “Henry solubility constant Hcp” value is listed as 5.9e-06.
For `[N-]=[N+]=O` [dinitrogen monoxide], the “Henry solubility constant Hcp” value is listed as 0.00024.
In the case of `FN(F)N(F)F` [dinitrogen tetrafluoride], the “Henry solubility constant Hcp” value is listed as 8.4e-06.
In the case of `CCN` [ethanamine], the “Henry solubility constant Hcp” value is listed as 0.35.
In the case of `C=C` [ethene], the “Henry solubility constant Hcp” value is given as 4.7e-05.
In the case of `C#C` [ethyne], the “Henry solubility constant Hcp” value is listed as 0.00041.
In the case of `CF` [fluoromethane], the “Henry solubility constant Hcp” value is listed as 0.00058.
In the case of `[He]` [helium], the “Henry solubility constant Hcp” value is listed as 3.8e-06.
In the case of `FC(F)=C(F)C(F)(F)F` [hexafluoropropene], the “Henry solubility constant Hcp” value is listed as 2.9e-06.
For `[HH]` [hydrogen], the “Henry solubility constant Hcp” value is given as 7.7e-06.
In the case of `[Kr]` [krypton], the “Henry solubility constant Hcp” value is given as 2.5e-05.
In the case of `CN` [methanamine], the “Henry solubility constant Hcp” value is listed as 0.35.
For `[Ne]` [neon], the “Henry solubility constant Hcp” value is listed as 4.4e-06.
In the case of `FN(F)F` [nitrogen trifluoride], the “Henry solubility constant Hcp” value is listed as 7.9e-06.
For `O=O` [oxygen], the “Henry solubility constant Hcp” value is given as 1.3e-05.
For `O=[O+][O-]` [ozone], the “Henry solubility constant Hcp” value is listed as 0.00013.
In the case of `P` [phosphorus trihydride], the “Henry solubility constant Hcp” value is given as 8.1e-05.
In the case of `C=CC` [propene], the “Henry solubility constant Hcp” value is listed as 7.3e-05.
In the case of `[Rn]` [radon], the “Henry solubility constant Hcp” value is listed as 9.2e-05.
In the case of `O=S=O` [sulfur dioxide], the “Henry solubility constant Hcp” value is listed as 0.014.
In the case of `FS(F)(F)(F)(F)F` [sulfur hexafluoride], the “Henry solubility constant Hcp” value is listed as 2.4e-06.
In the case of `FC(F)=C(F)F` [tetrafluoroethene], the “Henry solubility constant Hcp” value is listed as 1.6e-05.
For `FC(F)(F)F` [tetrafluoromethane], the “Henry solubility constant Hcp” value is listed as 2.1e-06.
For `FC(F)F` [trifluoromethane], the “Henry solubility constant Hcp” value is given as 0.00013.
In the case of `[Xe]` [xenon], the “Henry solubility constant Hcp” value is listed as 4.2e-05.
